Measured values from patent publication US11958868B2, “Methods of using metal complexes to promote wound healing” (University of Macau, priority 2022, dated 2024).
Read-outs that look alike come from different tables or passages of the source.

Legend:
[1] = target: T1, human recombinant VHL:ElonginB:ElonginC (VBC) complex (Homo sapiens, UniProt P40337); test: Fluorescence-based protein thermal shift assay (FTS) of VBC; format: binding; conditions: 100 μM
T1 construct: made in house
Method: (§1) HEK293 cells were treated with vehicle DMSO (1% for 2 h), 1a (0.3, 1, 3, 6 and 9 μM for 2 h), VH298 (100 μM for 2 h), MG132 (20 μM for 3 h), or FG-4592 (100 μM for 2 h) before lysis. Cell lysates were collected and incubated with VHL antibody overnight at 4° C. The proteins were immunoprecipitated using agarose beads. The levels of hydroxy-HIF-1α co-precipitated with VHL were detected using a hydroxy-HIF-1α antibody, and then visualized using ECL Western Blotting Detection Reagent (GE Healthcare). (B) Cellular thermal shift assays to monitor cellular target engagement of VHL and HIF-1α. HEK293 cell lysates were treated with 1a (3 μM) at room temperature for 30 min and then heated at different temperature ranging from 48° C. to 68° C. for 5 min. The protein samples were collected and detected by Western blotting using either VHL or PHD2 antibodies. (C) Fluorescence-based protein thermal shift assay of VBC in the presence or absence of VH298 (100 μM) and complex 1a (100 μM). […] Data are expressed as means±SD (n=3 independent experiments for figures a and b, samples for figures c and e), P values were calculated using a two-sided t-test. *P<0.05, **P<0.01 vs. DMSO group.
(§2) After incubating HEK293 cell lysates with complex 1a followed by heating to set temperatures, VHL and PHD2 levels in the soluble fraction were quantitated by Western blotting.

[2] = target: T1, human recombinant VHL:ElonginB:ElonginC (VBC) complex; test: Isothermal titration calorimetry (ITC); format: binding
Method: as §1, with “μM). (D) ITC titration of complex 1a (300 μM) into recombinant VHL protein (30 μM). ITC experiments were carried in a MicroCal PEAQ-ITC Isothermal Titration Calorimeter (Malvern Panalytical). […] (F) Biolayer interferometry (BLI) kinetic analysis of the interaction between complex 1a and VBC. VBC was surface-immobilized to Ni-NTA biosensors.” for “μM).”
as §2

[3] = target: T2, His-tagged recombinant VBC protein complex (Homo sapiens, UniProt P40337); test: Biolayer interferometry (BLI); format: binding; conditions: for Kd: 1:1 interaction, 0.78-12.5 μM
T2 construct: made in house
T2 sequence (P40337 whole entry): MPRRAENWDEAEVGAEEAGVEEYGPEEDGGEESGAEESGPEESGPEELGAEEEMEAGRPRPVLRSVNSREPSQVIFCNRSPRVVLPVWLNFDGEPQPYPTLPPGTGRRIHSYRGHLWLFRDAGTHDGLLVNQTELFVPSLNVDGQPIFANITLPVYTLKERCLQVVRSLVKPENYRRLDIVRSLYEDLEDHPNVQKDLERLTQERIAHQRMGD
T2 sequence (Q15370 whole entry partner): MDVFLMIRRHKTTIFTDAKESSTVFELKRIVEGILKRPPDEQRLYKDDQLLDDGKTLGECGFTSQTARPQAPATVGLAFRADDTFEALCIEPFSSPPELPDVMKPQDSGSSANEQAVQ
T2 sequence (Q15369 whole entry partner): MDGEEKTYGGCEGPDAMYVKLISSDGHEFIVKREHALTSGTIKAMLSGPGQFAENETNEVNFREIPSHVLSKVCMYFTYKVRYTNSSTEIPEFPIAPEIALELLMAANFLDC
Method: as §1, with “μM). (D) ITC titration of complex 1a (300 μM) into recombinant VHL protein (30 μM). ITC experiments were carried in a MicroCal PEAQ-ITC Isothermal Titration Calorimeter (Malvern Panalytical). […] (F) Biolayer interferometry (BLI) kinetic analysis of the interaction between complex 1a and VBC. VBC was surface-immobilized to Ni-NTA biosensors.” for “μM).”
as §2

[4] = tested on: HIF-1α, VEGF, GLUT1 and EPO levels in HEK293 cells; test: Western blotting of HIF-1α and HIF-1α target gene products in HEK293 cells; format: cell-based, Human; conditions: 2 h
Method: FIG. 3 depicts the effect of complex 1a on HIF-1α target gene products in cellulo. (A) Effect of complex 1a on specific proteins (GLUT1, VEGF, and EPO) mediated by HIF-1α in HEK293 cells. HEK293 cells were treated with 1a for 2 h. Cell lysis were collected and analyzed by the Western blotting. (B) Complex 1a has no effect on HIF-1α accumulation in a VHL null cancer cell line. A498 (VHL-null), or HEK293 cells were treated with 1% DMSO, 1a (3 μM), VH298 (100 μM), and FG-4592 (100 μM) for 2 h before lysis. (C) Effect of complex 1a on EPO, GLUT1, and VEGF levels in HEK293 cells with or without HIF-1α knockdown. Left: The expression levels of EPO, GLUT1, and VEGF in HEK293 cells with or without knockdown HIF-1α in the presence or absence of 1a. Right: Densitometry analysis of EPO, GLUT1, and VEGF levels on the Western blot. HIF-1α siRNA [sense, 5′-[…]-3′ (SEQ ID NO:1), antisense, 5′-[…]-3′ (SEQ ID NO:2)]. Negative control (NC) siRNA [sense, 5′-[…]-3′ (SEQ ID NO:3), antisense, 5′-[…]-3′ (SEQ ID NO:4)]. Data are expressed as means±SD (n=3 independent experiments), P values were calculated using a two-sided t-test. #P<0.05, P<0.01 HIF-1α siRNA vs. NC siRNA, *P<0.05, **P<0.01 1a vs. vehicle/DMSO group, respectively.
Therefore, the effect of complex 1a on HIF-1α and HIF-1α target protein levels in cellulo was investigated. […]

[5] = tested on: full-thickness skin wounds in streptozotocin-induced diabetic mice (STZ); test: Skin wound model in STZ diabetic mice, intraperitoneal; format: in vivo; conditions: 1.25 mg/kg i.p. every other day
Text: The mice were maintained for 3 days. […] All experiments complied with all relevant ethical regulations.
Mice were anesthetized by inhalation of 3% isoflurane.

[6] = target: T3, VHL (Homo sapiens, UniProt P40337); test: Binding affinity to VHL compared with VH298; conditions: complex 1a vs VH298
T3 sequence (P40337 whole entry): as the sequence (P40337 whole entry) above
T3 sequence (Q15370 whole entry partner): as the sequence (Q15370 whole entry partner) above
T3 sequence (Q15369 whole entry partner): as the sequence (Q15369 whole entry partner) above

[7] = target: T3, VHL; test: Cellular thermal shift assay (CETSA) in HEK293 cell lysates, VHL; format: binding; parameters: monitor the target engagement of 1a in HEK293 cell lysates; endogenous in cells; host or cells: HEK293 cell lysate; conditions: 3 μM, 30 min
Method: as §1
After incubating HEK293 cell lysates with complex 1a followed by heating to set temperatures, VHL and PHD2 levels in the soluble fraction were quantitated by Western blotting. […]

T1 sequence (P40337 whole entry): as the sequence (P40337 whole entry) above
T1 sequence (Q15370 whole entry partner): as the sequence (Q15370 whole entry partner) above
T1 sequence (Q15369 whole entry partner): as the sequence (Q15369 whole entry partner) above

COc1cc[n+]2c3c1ccc1c(OC)cc[n+](c13)[Ir-3]213([c]2ccccc2-c2cccc[n+]21)[c]1ccccc1-c1cccc[n+]13.F[P-](F)(F)(F)(F)F [1a]
Shift of the melting curve of purified VBC (FTS) [1]: ca. 3.0 °C | ΔG (ITC) [2]: -8.14 kcal/mol | ΔH (ITC) [2]: -7.85 kcal/mol | −TΔS (ITC) [2]: -0.29 kcal/mol | Kd ([2]; 300 μM complex titrated into 30 μM VBC, 25° C.): 1.08 ± 0.2 µM | koff (BLI) [3]: 0.0352 s⁻¹ | kon (BLI) [3]: 522 M⁻¹ s⁻¹ | Kd ([3]; read-out: Kd (BLI, kinetic fit)): 6.74 ± 0.19 µM | Kd ([3]; read-out: Kd (BLI, steady state fit)): 5.8 ± 0.64 µM | Expression levels of HIF-1α, VEGF, GLUT1 and EPO [4]: increased in a dose-dependent manner | Rate of wound closure, STZ mice, 4 days ([5]; 4 days post-injury): 50% | Rate of wound closure, STZ mice, 8 days ([5]; 8 days post-injury): 76% | Binding affinity, lower than that of VH298 [6]: around 100 fold | Shift in the VHL melting curve (CETSA) [7]: about 6 °C
